This is an account of results in patent US5880258A (dated 1999).

A short description of data set [1]: Prolongation of bleeding time (tail vein puncture wound). The data set is classed as in vivo. The following applies: wound 5 minutes after administration, male mice. The protocol: Samples were injected into male mice (20-25 g) via their tail vein under anaesthesia using pentobarbital (40 mg/kg i.p.). A puncture wound was made by inserting a 21G needle (outer diameter 0.85 mm) into the other side of the tail vein 5 minutes after administration of test compounds, and the bleeding time of the wound was measured.
A filter paper was put on the wound with changes every 15 seconds. Bleeding time is defined as the time required until no red spot is observed on the filter paper.

Data set [2] has as its target T1, thrombin (Homo sapiens, UniProt P00734). Nature of the data set: Inhibitory action against thrombin induced death. The following applies: score 0 normal, 1 loss of roll over reflection, 2 death within 20 minutes. It counts as in vivo, mice. The procedure: To male mice (20-25 g), in non-anaesthesia, thrombin (15 NIH units/10 g) was administered intravenously, and the anti-thrombin activity of the tested compound was evaluated by observing the disappearance of roll over reflection and death as indexes. All the tested compounds were dissolved in saline and 0.05 ml/10 g were administered intravenously 5 min prior to the thrombin injection.

In data set [3] the target is T1, thrombin. Briefly: anti-thrombin activity; clotting assay (coagulation time with fibrinogen as substrate). It counts as biochemical. Also on record: 100 μl of human-thrombin prepared at 10 NIH units/ml in aforesaid buffer. The procedure: Measurement of anti-thrombin activity was done by looking at anti-coagulant activity as an index using fibrinogen as the substrate. That is, the compounds were dossolved in 200 μl of 0.1 mM Tris-HCl buffer (pH7.5) containing 0.1% polyethyleneglycol-6000, 100 μl of human-thrombin prepared at 10 NIH units/ml in aforesaid buffer, were added 200 μl of human-fibrinogen (Sigma) prepared at 6 mg/ml in aforesaid tris-hydrochloride buffer were added, and the coagulation time of the reaction mixtures were measured. For measuring of coagulation times, coagulation time analyzer (Amelung KC10A) was used. Obtained values were converted into units by using a previously prepared thrombin standard curve. Graphs were prepared by plotting the converted values on the vertical axis, and the concentrations of the compounds on the horizontal axis. In the graphs, the thrombin unit was defined as 100 at a compound concentration of 0. The concentration of compounds corresponding to 50 units were defined as 50% inhibitory concentrations of compounds.

In data set [4] the test system is α-chymotrypsin. Nature of the data set: α-chymotrypsin in 0.1M sodium-phoshate buffer (pH7.0). The note with it: 37° C., up to 24 hours.
For data set [5], the system named is V8 protease (product of Sigma). Briefly: V8 protease in 0.1M sodium-phoshate buffer (pH7.0). The following applies: 37° C., up to 1 hour.
The test system of data set [6] is carboxypeptidase Y (product of Boehringer Mannheim). Nature of the data set: carboxypeptidase Y in 0.1M sodium-phoshate buffer (pH7.0). The note with it: 37° C., up to 30 min.

“Also recorded” adds a separate entry of the source. *1 amine or outer side, *2 acyl side, *3 side chain or, on linkers, in order; H or OH if unused. Where a SMILES comes first, the peptide text is derived from it. Where no end group is shown, it is not given here. [ ]: non-standard residue; d: D form. sY = N[C@@H](Cc1ccc(OS(=O)(=O)O)cc1)C(=O)O; Suc = O=C(CCC(=O)[*:2])[*:1]

For the compound `CC[C@H](C)[C@H](NC(=O)[C@@H]1CCCN1C(=O)[C@H](CCC(=O)O)NC(=O)[C@H](Cc1ccccc1)NC(=O)[C@H](CC(=O)O)NC(=O)CNC(=O)CCC(=O)O)C(=O)N1CCC[C@H]1C(=O)N[C@@H](CCC(=O)O)C(=O)N[C@@H](Cc1ccc(OS(=O)(=O)O)cc1)C(=O)N[C@@H](Cc1ccc(OS(=O)(=O)O)cc1)C(=O)N[C@@H](CC(C)C)C(=O)N[C@@H](CCC(N)=O)C(=O)O` [Sulfated form of (C), Suc--Gly--Asp--Phe--Glu--Pro--Ile--Pro--Glu--Tyr(SO3 H)--Tyr(SO3 H)--Leu--Gln--OH] (Suc-GDFEPIPE[sY][sY]LQ-OH), the Bleeding time in data set [1] (10 mg/kg via tail vein) is 277.5 ± 31.5 s; in data set [1] (20 mg/kg via tail vein), 366.0 ± 23.0 s; in data set [1] (50 mg/kg via tail vein), 432.0 ± 33.3 s. Moreover, the Score is 1.2 in data set [2] (20 mg/kg i.v. 5 min before thrombin 15 NIH units/10 g), 0.8 in data set [2] (50 mg/kg i.v. 5 min before thrombin 15 NIH units/10 g) and 0.6 in data set [2] (100 mg/kg i.v. 5 min before thrombin 15 NIH units/10 g). Moreover, the Potency in data set [3] (calculated using the definition that HV-1 (54-65) potency is 1) is given as 88.94. Further, the IC50 in data set [3] (concentration corresponding to 50 thrombin units, human-thrombin 10 NIH units/ml, human-fibrinogen 6 mg/ml, read-out: 50% Inhibition Concentration (converted)) was 42.9 nM.
Regarding GDFEEIPYYYLQ, the cleaved bond entry in data set [4] is given as “Tyr-Tyr”.
With “Gly--Asp--Phe--Glu--Glu--Ile--Pro--Glu--Tyr--Tyr(SO3 H)--Leu--Gln”, the cleaved bond result in data set [5] is reported as “Glu-Tyr”. Further, in data set [6], the cleaved bond result was “Leu-Gln; also recorded: Tyr(SO3 H)-Leu” and the not cleaved entry is recorded as “no Tyr was released (30 min.)”.
